# Assay results from patent US10428017B2, “Modulators of the cystic fibrosis transmembrane conductance regulator protein and methods of use” (AbbVie S.à.r.l., priority 2017, dated 2019).
# Read-outs that look alike come from different tables or passages of the source.
# Biological target: T1, F508delCFTR (Homo sapiens, UniProt P13569, DEL508-508)
# T1 construct: expressed in transfected cells; host or cells: CFBE4lo-F508delCFTR-HRP cells (human lung derived epithelial cell line, doxycycline-inducible)
# Assay: Cell Surface Expression-Horse Radish Peroxidase (CSE-HRP) Assay
# Format: cell-based
# Details: for EC50: CFBE4lo-F508delCFTR-HRP cells, 18-24 hours at 33° C.; for Emax / Maximum % activity (with co-corrector): maximum at any tested concentration (up to 20 μM), normalized to on-plate positive control (2 μM co-corrector); for Maximum % activity (with co-corrector): with co-corrector 2 μM
# In short: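 CFBE4lo− cells expressing F508delCFTR with HRP in the fourth exofacial loop, induced 72 h with 0.5 μg/mL doxycycline, then treated 18-24 h at 33° C, alone or with 2 μM co-corrector (8 points, 3-fold, top 20 μM). Luminol luminescence after washing; % activity normalized to DMSO and 2 μM positive control; sigmoidal EC50 from triplicate plates.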
# [1] = test compound without co-corrector, HRP luminescence readout, read-out: EC50 (without co-corrector)
# [2] = test compound without co-corrector
# [3] = with co-corrector 2 μM 3-[(2R,4R)-4-({[1-(2,2-difluoro-1,3-benzodioxol-5-yl)cyclopropyl]carbonyl}amino)-7-methoxy-3,4-dihydro-2H-chromen-2-yl]benzoic acid, read-out: EC50 (with co-corrector)
# T1 sequence (P13569 with tags, fused parts or gaps DEL508-508): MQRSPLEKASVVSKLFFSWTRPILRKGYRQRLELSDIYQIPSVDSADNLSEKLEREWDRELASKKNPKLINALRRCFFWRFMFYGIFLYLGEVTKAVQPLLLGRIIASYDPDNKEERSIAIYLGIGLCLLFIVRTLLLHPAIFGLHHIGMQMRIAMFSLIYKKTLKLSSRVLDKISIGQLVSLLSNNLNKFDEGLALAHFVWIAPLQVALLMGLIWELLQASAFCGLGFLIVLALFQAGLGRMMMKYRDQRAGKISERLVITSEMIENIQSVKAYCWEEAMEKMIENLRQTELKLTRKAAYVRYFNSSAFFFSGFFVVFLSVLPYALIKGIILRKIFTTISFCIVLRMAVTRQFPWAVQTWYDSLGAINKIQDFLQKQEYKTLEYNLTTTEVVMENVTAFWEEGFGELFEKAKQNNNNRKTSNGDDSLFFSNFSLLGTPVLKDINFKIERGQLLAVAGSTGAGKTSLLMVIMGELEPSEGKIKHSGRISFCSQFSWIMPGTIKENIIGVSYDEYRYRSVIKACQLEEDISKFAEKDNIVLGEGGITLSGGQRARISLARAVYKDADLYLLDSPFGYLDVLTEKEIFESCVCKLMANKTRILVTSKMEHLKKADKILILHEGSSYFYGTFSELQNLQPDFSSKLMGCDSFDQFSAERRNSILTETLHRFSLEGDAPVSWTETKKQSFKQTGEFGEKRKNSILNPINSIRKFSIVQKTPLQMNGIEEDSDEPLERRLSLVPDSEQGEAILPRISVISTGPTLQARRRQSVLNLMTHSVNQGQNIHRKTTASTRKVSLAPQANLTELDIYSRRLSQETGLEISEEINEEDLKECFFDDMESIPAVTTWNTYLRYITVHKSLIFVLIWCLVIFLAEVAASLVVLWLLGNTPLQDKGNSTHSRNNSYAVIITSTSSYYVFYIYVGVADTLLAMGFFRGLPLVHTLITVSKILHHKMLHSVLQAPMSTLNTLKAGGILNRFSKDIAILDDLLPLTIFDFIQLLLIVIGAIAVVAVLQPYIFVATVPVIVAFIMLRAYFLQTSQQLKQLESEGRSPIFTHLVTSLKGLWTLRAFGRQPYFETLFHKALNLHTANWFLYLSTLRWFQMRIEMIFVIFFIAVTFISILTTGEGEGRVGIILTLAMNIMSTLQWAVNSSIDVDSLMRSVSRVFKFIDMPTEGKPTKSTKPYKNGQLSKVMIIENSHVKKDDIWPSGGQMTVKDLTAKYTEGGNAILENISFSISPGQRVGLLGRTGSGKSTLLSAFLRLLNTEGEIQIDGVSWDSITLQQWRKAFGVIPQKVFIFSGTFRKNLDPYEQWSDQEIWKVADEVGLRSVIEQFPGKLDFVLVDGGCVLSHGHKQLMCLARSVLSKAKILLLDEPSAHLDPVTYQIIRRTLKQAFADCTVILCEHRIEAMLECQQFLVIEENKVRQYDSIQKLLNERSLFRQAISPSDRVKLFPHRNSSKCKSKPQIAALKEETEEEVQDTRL
Compound,EC50 [1],Emax [2],EC50 [3],Maximum % activity (with co-corrector)
"C[C@]1(C(=O)NS(=O)(=O)c2cccc3ccccc23)COc2cc3c(cc21)OC(F)(F)O3 [Example 33, (7R)-2,2-difluoro-7-methyl-N-(naphthalene-1-sulfonyl)-6,7-dihydro-2H-furo[2,3-f][1,3]benzodioxole-7-carboxamide]",≥ 10 µM,< 50%,≥ 10 µM,++ (≥150 and <350)
"O=C(NS(=O)(=O)c1cccc2ccccc12)C1COc2ccccc21 (centres unmarked) [Example 34, N-(naphthalene-1-sulfonyl)-2,3-dihydro-1-benzofuran-3-carboxamide]",≥ 10 µM,< 50%,≥ 10 µM,+ (<150)
"CCC1(C(=O)NS(=O)(=O)c2cccc3ccccc23)COc2cccc(OC)c21 (centres unmarked) [Example 8, 3-ethyl-4-methoxy-N-(naphthalene-1-sulfonyl)-2,3-dihydro-1-benzofuran-3-carboxamide]",3 to 10 µM,≥ 150%,< 3 µM,+++ (≥350)
"COc1ccc(Br)c2c1[C@@H](C(=O)NS(=O)(=O)c1cccc3ccccc13)CCO2 [Example 35, (4S)-8-bromo-5-methoxy-N-(naphthalene-1-sulfonyl)-3,4-dihydro-2H-1-benzopyran-4-carboxamide]",3 to 10 µM,50 to 150%,3 to 10 µM,+++ (≥350)
"O=C(NS(=O)(=O)c1cccc2ccccc12)C1(c2ccccc2)C[C@@H](CN2CCCC2)Oc2ccccc21 (stereo partly drawn) [Example 31, (2S)—N-(naphthalene-1-sulfonyl)-4-phenyl-2-[(pyrrolidin-1-yl)methyl]-3,4-dihydro-2H-1-benzopyran-4-carboxamide]",≥ 10 µM,< 50%,3 to 10 µM,++ (≥150 and <350)
"COc1ccc(Br)c2c1C(C(=O)NS(=O)(=O)c1cccc3ccccc13)CO2 (centres unmarked) [Example 39, 7-bromo-4-methoxy-N-(naphthalene-1-sulfonyl)-2,3-dihydro-1-benzofuran-3-carboxamide]",< 3 µM,≥ 150%,< 3 µM,+++ (≥350)
"CCC1(C(=O)NS(=O)(=O)c2cccc3ccccc23)COc2c(Br)cccc21 (centres unmarked) [Example 22, 7-bromo-3-ethyl-N-(naphthalene-1-sulfonyl)-2,3-dihydro-1-benzofuran-3-carboxamide]",3 to 10 µM,≥ 150%,3 to 10 µM,+++ (≥350)
"COc1cccc2c1OCC2C(=O)NS(=O)(=O)c1cccc2ccccc12 (centres unmarked) [Example 25, 7-methoxy-N-(naphthalene-1-sulfonyl)-2,3-dihydro-1-benzofuran-3-carboxamide]",3 to 10 µM,< 50%,3 to 10 µM,++ (≥150 and <350)
"O=C(NS(=O)(=O)c1cccc2ccccc12)C1COc2c(Br)cccc21 (centres unmarked) [Example 21, 7-bromo-N-(naphthalene-1-sulfonyl)-2,3-dihydro-1-benzofuran-3-carboxamide]",3 to 10 µM,50 to 150%,3 to 10 µM,++ (≥150 and <350)
"COc1c(Br)cc(Br)c2c1C(C(=O)NS(=O)(=O)c1cccc3ccccc13)CCO2 (centres unmarked) [Example 12, 6,8-dibromo-5-methoxy-N-(naphthalene-1-sulfonyl)-3,4-dihydro-2H-1-benzopyran-4-carboxamide]",3 to 10 µM,≥ 150%,3 to 10 µM,+++ (≥350)
"CCC1(C(=O)NS(=O)(=O)c2cccc3ccccc23)COc2c(OC)cccc21 (centres unmarked) [Example 15, 3-ethyl-7-methoxy-N-(naphthalene-1-sulfonyl)-2,3-dihydro-1-benzofuran-3-carboxamide]",3 to 10 µM,50 to 150%,3 to 10 µM,+++ (≥350)
"Cc1ccccc1S(=O)(=O)NC(=O)C1Cc2ccccc2O1 (centres unmarked) [Example 17, N-(2-methylbenzene-1-sulfonyl)-2,3-dihydro-1-benzofuran-2-carboxamide]",≥ 10 µM,< 50%,≥ 10 µM,+ (<150)

# The next lines start with the values.
EC50 [1],Emax [2],EC50 [3],Maximum % activity (with co-corrector),Compound
< 3 µM,≥ 150%,< 3 µM,+++ (≥350),"COc1ccc(C2CCC2)c2c1C(C(=O)NS(=O)(=O)c1cccc3c1CCCN3)CC(C)(C)O2 (centres unmarked) [Example 93, 8-cyclobutyl-5-methoxy-2,2-dimethyl-N-(1,2,3,4-tetrahydroquinoline-5-sulfonyl)-3,4-dihydro-2H-1-benzopyran-4-carboxamide]"
≥ 10 µM,< 50%,3 to 10 µM,++ (≥150 and <350),"COc1cccc2c1CCOC2C(=O)NS(=O)(=O)c1cccc2ccccc12 (centres unmarked) [Example 110, 5-methoxy-N-(naphthalene-1-sulfonyl)-3,4-dihydro-1H-2-benzopyran-1-carboxamide]"
< 3 µM,≥ 150%,< 3 µM,+++ (≥350),"COc1ccc(C2CCC2)c2c1[C@H](C(=O)NS(=O)(=O)c1cccc3c1CCCN3)CCO2 [Example 92, (4R)-8-cyclobutyl-5-methoxy-N-(1,2,3,4-tetrahydroquinoline-5-sulfonyl)-3,4-dihydro-2H-1-benzopyran-4-carboxamide]"
< 3 µM,≥ 150%,< 3 µM,+++ (≥350),"COc1ccc(Br)c2c1[C@H](C(=O)NS(=O)(=O)c1cccc3ccccc13)CO2 (single isomer, unassigned) [Example 74]"
3 to 10 µM,≥ 150%,< 3 µM,+++ (≥350),"COc1ccc(C2CC2)c2c1C(C(=O)NS(=O)(=O)c1cccc3ccccc13)CCO2 (centres unmarked) [Example 64, 8-cyclopropyl-5-methoxy-N-(naphthalene-1-sulfonyl)-3,4-dihydro-2H-1-benzopyran-4-carboxamide]"
3 to 10 µM,50 to 150%,3 to 10 µM,+++ (≥350),"CCC1(C(=O)NS(=O)(=O)c2cccc3ccccc23)COc2c(Cl)cccc21 (centres unmarked) [Example 44, 7-chloro-3-ethyl-N-(naphthalene-1-sulfonyl)-2,3-dihydro-1-benzofuran-3-carboxamide]"
3 to 10 µM,≥ 150%,< 3 µM,+++ (≥350),"COc1ccc(C2CCC2)c2c1[C@H](C(=O)NS(=O)(=O)c1cccc3nc(C)ccc13)CCO2 [Example 77, (4R)-8-cyclobutyl-5-methoxy-N-(2-methylquinoline-5-sulfonyl)-3,4-dihydro-2H-1-benzopyran-4-carboxamide]"
3 to 10 µM,≥ 150%,< 3 µM,+++ (≥350),"COc1ccc(C2CCC2)c2c1C(C(=O)NS(=O)(=O)c1cccc3nc(C)ccc13)CCO2 (racemic) [Example 75, 8-cyclobutyl-5-methoxy-N-(2-methylquinoline-5-sulfonyl)-3,4-dihydro-2H-1-benzopyran-4-carboxamide]"
3 to 10 µM,50 to 150%,3 to 10 µM,++ (≥150 and <350),"O=C(NS(=O)(=O)c1cccc2ccccc12)C1COc2c1cccc2C(F)(F)F (centres unmarked) [Example 45, N-(naphthalene-1-sulfonyl)-7-(trifluoromethyl)-2,3-dihydro-1-benzofuran-3-carboxamide]"
3 to 10 µM,≥ 150%,< 3 µM,+++ (≥350),"COc1cccc2c1C(C(=O)NS(=O)(=O)c1cccc3ccccc13)CC(C)(C)O2 (centres unmarked) [Example 49, 5-methoxy-2,2-dimethyl-N-(naphthalene-1-sulfonyl)-3,4-dihydro-2H-1-benzopyran-4-carboxamide]"
3 to 10 µM,≥ 150%,3 to 10 µM,+++ (≥350),"COc1ccc(C2CCC2)c2c1[C@@H](C(=O)NS(=O)(=O)c1cccc3ncccc13)CO2 (single isomer, unassigned) [Example 82]"
3 to 10 µM,≥ 150%,< 3 µM,+++ (≥350),"COc1ccc(Cl)c2c1C(C(=O)NS(=O)(=O)c1cccc3ccccc13)CO2 (centres unmarked) [Example 63, 7-chloro-4-methoxy-N-(naphthalene-1-sulfonyl)-2,3-dihydro-1-benzofuran-3-carboxamide]"
3 to 10 µM,< 50%,3 to 10 µM,++ (≥150 and <350),"COc1ccc(C2CCC2)c2c1OCC[C@@H]2C(=O)NS(=O)(=O)c1cccc2ncccc12 (single isomer, unassigned) [Example 107]"
3 to 10 µM,< 50%,3 to 10 µM,++ (≥150 and <350),"O=C(NS(=O)(=O)c1cccc2ccccc12)C1COc2c(Cl)cccc21 (centres unmarked) [Example 43, 7-chloro-N-(naphthalene-1-sulfonyl)-2,3-dihydro-1-benzofuran-3-carboxamide]"
